Consider 14 compounds from patent publication US9061030B2, “sGC stimulators” (IRONWOOD PHARMACEUTICALS, INC., priority 2010, dated 2015).

Test [1] concerns the target T1, Human soluble guanylate cyclase enzyme (hsGC) (Homo sapiens, UniProt Q02108+Q02153).
T1 construct: purchased Enzo Inc. ALX-201-177
T1 sequence (Q02153 1-619): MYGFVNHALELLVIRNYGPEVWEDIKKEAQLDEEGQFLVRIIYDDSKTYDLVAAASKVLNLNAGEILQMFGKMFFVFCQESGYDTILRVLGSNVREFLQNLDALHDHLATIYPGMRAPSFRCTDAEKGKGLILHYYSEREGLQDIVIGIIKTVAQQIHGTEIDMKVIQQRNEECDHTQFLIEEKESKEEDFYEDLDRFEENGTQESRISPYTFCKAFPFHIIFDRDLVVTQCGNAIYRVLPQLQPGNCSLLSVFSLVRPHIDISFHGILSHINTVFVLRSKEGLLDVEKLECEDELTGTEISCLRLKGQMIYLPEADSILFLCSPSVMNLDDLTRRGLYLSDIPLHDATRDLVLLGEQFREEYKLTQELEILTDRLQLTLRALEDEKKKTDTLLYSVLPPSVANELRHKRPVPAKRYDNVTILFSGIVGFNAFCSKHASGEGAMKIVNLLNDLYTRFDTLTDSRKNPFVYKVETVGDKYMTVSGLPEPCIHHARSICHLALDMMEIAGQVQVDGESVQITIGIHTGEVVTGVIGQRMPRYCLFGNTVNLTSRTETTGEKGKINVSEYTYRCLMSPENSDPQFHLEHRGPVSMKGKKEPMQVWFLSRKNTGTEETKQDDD
T1 sequence (Q02108 1-690): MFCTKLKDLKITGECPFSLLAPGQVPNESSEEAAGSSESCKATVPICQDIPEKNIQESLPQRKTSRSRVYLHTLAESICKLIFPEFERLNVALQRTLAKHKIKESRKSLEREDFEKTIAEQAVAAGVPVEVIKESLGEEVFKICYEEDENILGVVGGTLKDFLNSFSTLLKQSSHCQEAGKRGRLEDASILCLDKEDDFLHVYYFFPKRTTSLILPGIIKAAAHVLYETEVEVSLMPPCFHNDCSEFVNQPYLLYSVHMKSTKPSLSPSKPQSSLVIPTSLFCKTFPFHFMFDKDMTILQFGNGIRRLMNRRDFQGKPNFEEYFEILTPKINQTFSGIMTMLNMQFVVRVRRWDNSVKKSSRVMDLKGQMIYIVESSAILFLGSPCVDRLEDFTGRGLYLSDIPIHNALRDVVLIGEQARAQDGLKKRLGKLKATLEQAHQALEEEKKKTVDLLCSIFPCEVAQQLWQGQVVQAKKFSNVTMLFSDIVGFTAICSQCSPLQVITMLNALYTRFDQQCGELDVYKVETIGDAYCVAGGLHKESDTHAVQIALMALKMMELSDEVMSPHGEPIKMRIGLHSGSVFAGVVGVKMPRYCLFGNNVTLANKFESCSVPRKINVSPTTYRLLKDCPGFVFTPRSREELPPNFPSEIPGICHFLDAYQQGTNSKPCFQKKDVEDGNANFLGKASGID
The test can be described thus: Purified human sGC enzyme activity assay (with or without SNP). The format is biochemical. The note with it: 30 μM compound; for sGC Enzyme Activity Increase at 30 μM with SNP: 1 μM SNP, specific activity vs DMSO and SNP; for sGC Enzyme Activity Increase at 30 μM without SNP: specific activity vs DMSO control. The procedure: Human soluble guanylate cyclase enzyme (hsGC) obtained from Enzo Inc. (P/N: ALX-201-177) was used to evaluate the activity of test compounds. The assay reactions contained 0.1 M Tris (pH 8.0), 0.5 mg/mL BSA (pH 8.0), 2 mM DTT, 2 mM MgCl2, 300 μM GTP, 1 mM 3-isobutyl-1-methylxanthine (IBMX) and 5 ng human soluble guanylate cyclase enzyme. Test compounds in DMSO were then added (2 μL, 10 or 30 μM final concentration) and incubated (200 μL, 96-well plate format) at 37° C. for 30 minutes. The controls were carried out using 2 μL DMSO. After the 30 minute incubation, the reaction was stopped with the addition of 200 μL of cold methanol. The plate was then centrifuged at 3,200 rpm for 10 minutes at room temperature. Supernatants (200 μL) were collected and transferred to a new 96 well plate for analysis.
An 8 point cGMP (Sigma-Aldrich P/N: G6129) standard curve was prepared in assay buffer ranging from 0.156-20 μM. Samples for the cGMP standard curve were then diluted with an equal volume of methanol resulting in final cGMP concentrations of 0.078-10 μM.
The cGMP standard curve was generated using GraphPad Prism Software.
Calculations: Specific Activity was determined by the amount of cGMP formed (nmoles) per mg of sGC per min. Enzyme activity “fold-change” was calculated by dividing the Specific Activity for a test compound by the Specific Activity of DMSO control.
The enzymatic activity fold-change of the purified human sGC enzyme determined in the presence of each of the test compounds individually at 10 or 30 μm without the addition of sodium nitroprusside (SNP), a nitric oxide donor, is presented in Table 5.
Enzyme assays were also performed as described above, but in the presence of 1 μM sodium nitroprusside (SNP). Enzymatic activity fold-changes are reported for selected test compounds in the presence of both SNP and the test compound. These were calculated by dividing the specific activity (activity increase) for the test compound dissolved in DMSO and SNP over the specific activity for the mixture of DMSO and SNP.

In test [2] the target is T2, soluble guanylate cyclase (sGC) (Homo sapiens, UniProt Q02108+Q02153).
T2 construct: endogenously expressing soluble guanylate cyclase (sGC); endogenous in cells; host or cells: HEK293
T2 sequence (Q02153 1-619): T1 sequence (Q02153 1-619)
T2 sequence (Q02108 1-690): T1 sequence (Q02108 1-690)
The test can be described thus: sGC-HEK-cGMP assay. The class given is cell-based. The note with it: HEK293 cells, 10 μM SNP, percentage of sGC activity obtained with positive control BAY 41-2272 (= 100%); for Emax at 10 µM: compound at 10 μM; for Emax at 30 µM: compound at 30 μM. The procedure:
Human embryonic kidney cells (HEK293), endogenously expressing soluble guanylate cyclase (sGC), were used to evaluate the activity of the test compounds. Compounds stimulating the sGC receptor should cause an increase in the intracellular concentration of cGMP. HEK 293 cells were seeded in Dulbecco's Modification of Eagle's Medium supplemented with fetal bovine serum (10% final) and L-glutamine (2 mM final) in a 200 μL volume at a density of 1×10^5 cells/well in a poly-D-lysine coated 96 well flat bottom plate and grown overnight at 37° C. Medium was aspirated and cells were washed with 1× Hank's Buffered Saline Salt Solution (200 μL). Cells were then incubated for 15 minutes at 37° C. with 0.5 mM 3-isobutyl-1-methylxanthine (200 μL). Test article was then added to the assay mixture (2 μL) and incubated in the presence of 10 μM Sodium Nitroprusside (SNP) at 37° C. for 10 minutes. After the 10 minute incubation, the assay mixture was aspirated and 0.1M HCl (200 μL) was added to the cells. The plate was incubated at 4° C. for 30 minutes in the 0.1M HCl to stop the reaction and lysed the cells. The plates were then centrifuged at 1,200 g for 5 minutes at room temperature. Supernatants were collected and transferred to a new flat bottom 96 well plate for analysis. Vehicle controls were carried out using DMSO (1%). A known sGC stimulator, BAY 41-2272, was used as the positive control.
Samples were diluted with an equal volume of 1 M Ammonium Acetate (pH 7) to neutralize samples for better chromatography. A 2×cGMP standard curve was prepared in 0.1 M HCl and then diluted with an equal volume of 1 M Ammonium Acetate, with the following final concentrations in nM: 1024, 512, 256, 128, 64, 32, 16, 8, 4, 2, 1.cGMP concentrations were determined from each sample using the LC/MS conditions (Table 2 below) and calculated standard curve. EC50 values were calculated from concentration-response curves generated with GraphPad Prism Software.
The biological activities of some of the compounds according to Formula IA or Formula IB determined with the sGC-HEK assay are summarized in Table 3 below.

Turning to `Fc1ccccc1Cn1nc(-c2ccccn2)nc1C1CC1` [Compound I-21], in test [1], the “sGC Enzyme Activity Increase at 30 μM with SNP” value is on record as “B (B = 1 to <2 fold increase)” and the “sGC Enzyme Activity Increase at 30 μM without SNP” value is given as “B (B = 1 to <2 fold increase)”. In test [2], this compound registered an Emax at 10 µM of 0 to 5% and an Emax at 30 µM of 0 to 5%.
Regarding `Fc1ccccc1Cn1nc(-c2ccccn2)nc1C1CCC1` [Compound I-24], in test [1], the “sGC Enzyme Activity Increase at 30 μM with SNP” value is “C (C = 2 to <5 fold increase)” and the “sGC Enzyme Activity Increase at 30 μM without SNP” value is on record as “C (C = 2 to <5 fold increase)”. In addition, in test [2], the Emax at 10 µM lay in the range of 5 to 10% and the Emax at 30 µM was 10 to 20%.
As for `Fc1ccccc1Cn1nc(-c2nccs2)nc1-c1ccccn1` [Compound I-26], in test [1], the “sGC Enzyme Activity Increase at 30 μM with SNP” value is “D (D = 5 to <10 fold increase)” and the “sGC Enzyme Activity Increase at 30 μM without SNP” value is reported as “C (C = 2 to <5 fold increase)”. Besides, in test [2], the Emax at 10 µM is 10 to 20% and the maximal response (Emax) at 30 µM fell in the range of 10 to 20%.
Turning to `Fc1ccccc1Cn1nc(-c2ncccn2)nc1-c1ccccc1` [Compound I-27], in test [1], the “sGC Enzyme Activity Increase at 30 μM with SNP” value is given as “B (B = 1 to <2 fold increase)” and the “sGC Enzyme Activity Increase at 30 μM without SNP” value is “B (B = 1 to <2 fold increase)”. Moreover, in test [2], the Emax at 10 µM lay within 0 to 5% and the Emax at 30 µM was in the range of 0 to 5%.
As to `Cc1nc(-c2ncccn2)nn1Cc1ccccc1F` [Compound I-28], in test [1], the “sGC Enzyme Activity Increase at 30 μM with SNP” value was “B (B = 1 to <2 fold increase)” and the “sGC Enzyme Activity Increase at 30 μM without SNP” value is on record as “B (B = 1 to <2 fold increase)”. Moreover, in test [2], the Emax at 10 µM was in the range of 0 to 5% and the Emax at 30 µM lay within 0 to 5%.
`Fc1ccccc1Cn1nc(-c2nccs2)nc1-c1ncccn1` [Compound I-29]: in test [1], the “sGC Enzyme Activity Increase at 30 μM with SNP” value is “C (C = 2 to <5 fold increase)” and the “sGC Enzyme Activity Increase at 30 μM without SNP” value is “B (B = 1 to <2 fold increase)”. In test [2], this compound yielded an Emax at 10 µM of 0 to 5% and an Emax at 30 µM of 0 to 5%.
With `Fc1ccccc1Cn1nc(-c2ccccn2)nc1-c1ncccn1` [Compound I-31], in test [1], the “sGC Enzyme Activity Increase at 30 μM with SNP” value is “C (C = 2 to <5 fold increase)” and the “sGC Enzyme Activity Increase at 30 μM without SNP” value was “B (B = 1 to <2 fold increase)”. Moreover, in test [2], the Emax at 10 µM is 0 to 5% and the Emax at 30 µM fell in the range of 0 to 5%.
Take `Fc1ccccc1Cn1nc(-c2ncccn2)nc1-c1ccccn1` [Compound I-32]: in test [1], the “sGC Enzyme Activity Increase at 30 μM with SNP” value is given as “C (C = 2 to <5 fold increase)” and the “sGC Enzyme Activity Increase at 30 μM without SNP” value is on record as “C (C = 2 to <5 fold increase)”. In test [2], this compound yielded an Emax at 10 µM of 0 to 5% and an Emax at 30 µM of 10 to 20%.
Consider `COC(=O)c1nc(-c2ccccn2)nn1Cc1ccccc1F` [Compound I-35, methyl 1-(2-fluorobenzyl)-3-(pyridin-2-yl)-1H-1,2,4-triazole-5-carboxylate], for which, in test [1], the “sGC Enzyme Activity Increase at 30 μM with SNP” value is on record as “C (C = 2 to <5 fold increase)” and the “sGC Enzyme Activity Increase at 30 μM without SNP” value is recorded as “B (B = 1 to <2 fold increase)”. In test [2], this compound had an Emax at 10 µM of 0 to 5% and an Emax at 30 µM of 0 to 5%.
Consider `Fc1ccccc1Cn1nc(-c2cc(Br)ccn2)nc1-c1nccs1` [Compound I-36, 2-(3-(4-bromopyridin-2-yl)-1-(2-fluorobenzyl)-1H-1,2,4-triazol-5-yl)thiazole], for which, in test [1], the “sGC Enzyme Activity Increase at 30 μM with SNP” value is recorded as “B (B = 1 to <2 fold increase)” and the “sGC Enzyme Activity Increase at 30 μM without SNP” value is “B (B = 1 to <2 fold increase)”. In test [2], this compound registered an Emax at 10 µM of 0 to 5% and an Emax at 30 µM of 0 to 5%.
With `Fc1ccccc1Cn1nc(-c2nccs2)nc1-c1cc(Br)ccn1` [Compound I-37, 2-(5-(4-bromopyridin-2-yl)-1-(2-fluorobenzyl)-1H-1,2,4-triazol-3-yl)thiazole], in test [1], the “sGC Enzyme Activity Increase at 30 μM with SNP” value is on record as “D (D = 5 to <10 fold increase)” and the “sGC Enzyme Activity Increase at 30 μM without SNP” value is recorded as “C (C = 2 to <5 fold increase)”. In test [2], this compound gave an Emax at 10 µM of 10 to 20% and an Emax at 30 µM of 20 to 40%.
The matching figures for `Fc1ccc(-c2nc(-c3nccs3)nn2Cc2ccccc2F)nc1` [Compound I-39]: “C (C = 2 to <5 fold increase)”, “B (B = 1 to <2 fold increase)”, 5 to 10% and 5 to 10%.
Taken in the same sequence, the figures for `Fc1ccccc1Cn1nc(-c2ccccn2)nc1-c1nnco1` [Compound I-42, 2-(1-(2-fluorobenzyl)-3-(pyridin-2-yl)-1H-1,2,4-triazol-5-yl)-1,3,4-oxadiazole] were “C (C = 2 to <5 fold increase)”, “B (B = 1 to <2 fold increase)”, 0 to 5% and 5 to 10%.
Taken in the same sequence, the figures for `Fc1ccccc1Cn1nc(-c2cocn2)nc1-c1ncccn1` [Compound I-45] were “B (B = 1 to <2 fold increase)”, “B (B = 1 to <2 fold increase)”, 0 to 5% and 0 to 5%.

One may read the Emax as the greatest response seen or fitted, relative to the assay's reference.
